Here are results for 2 compounds from ChEMBL document CHEMBL5260810, “Inhibition of bromodomain-containing protein 9 for the prevention of epigenetically-defined drug resistance” (Bioorg Med Chem Lett, 2017).

Experiment [1] deals with T1, Bromodomain-containing protein 9 (Homo sapiens) (UniProt Q9H8M2).
T1 sequence (whole entry): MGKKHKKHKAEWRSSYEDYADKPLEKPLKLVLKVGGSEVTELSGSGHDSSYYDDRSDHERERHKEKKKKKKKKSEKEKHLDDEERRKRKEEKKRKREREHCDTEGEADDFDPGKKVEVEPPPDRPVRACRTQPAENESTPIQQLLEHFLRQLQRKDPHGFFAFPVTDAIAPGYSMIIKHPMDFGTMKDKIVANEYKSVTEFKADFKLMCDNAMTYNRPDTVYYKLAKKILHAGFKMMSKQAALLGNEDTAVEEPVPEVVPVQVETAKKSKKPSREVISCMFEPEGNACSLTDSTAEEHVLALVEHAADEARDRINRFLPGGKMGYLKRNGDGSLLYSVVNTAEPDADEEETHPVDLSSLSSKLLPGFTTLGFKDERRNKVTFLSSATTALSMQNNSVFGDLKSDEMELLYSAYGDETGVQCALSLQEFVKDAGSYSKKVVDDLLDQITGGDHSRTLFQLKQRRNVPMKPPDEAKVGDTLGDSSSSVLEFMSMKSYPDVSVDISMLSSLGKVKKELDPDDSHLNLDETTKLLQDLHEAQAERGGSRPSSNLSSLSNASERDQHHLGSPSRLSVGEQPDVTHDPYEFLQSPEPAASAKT
In words: Inhibition of BRD9 in human PC-9 cells assessed as reduction in ALDH1A1 gene expression at 5 uM preincubated with erlotinib for 8 days followed by compound addition and measured after 24 hrs by RNA sequencing analysis. In kind it is cell-based.

Experiment [2] relates to MIA PaCa-2. The experiment is described as follows: Antiproliferative activity against human MIA PaCa-2 cells assessed as reduction in colony formation up to 20 uM supplemented with fresh medium containing compound every 3 days for 9 days by MTT staining based clonogenic assay. The following applies: time 9.0 day. Type of experiment: functional, cell-based.
Experiment [3] relates to Kasumi 1. The experiment is described as follows: Cytotoxicity against human Kasumi 1 cells measured after 8 days. The following applies: Kasumi 1, 192 h. In kind it is functional, cell-based.
Experiment [4] concerns REH. The experiment is described as follows: Cytotoxicity against human REH cells measured after 8 days. Type of experiment: functional, cell-based. The following applies: 192 h.
Experiment [5] deals with BXPC-3. The experiment is described as follows: Antiproliferative activity against human BxPC-3 cells assessed as reduction in colony formation up to 20 uM supplemented with fresh medium containing compound every 3 days for 9 days by MTT staining based clonogenic assay. Type of experiment: functional, cell-based. Conditions: time 9.0 day.
Experiment [6] deals with ML-2. In words: Cytotoxicity against human ML-2 cells measured after 3 days. The following applies: ML-2, 72 h. In kind it is functional, cell-based.
Experiment [7] has as its system SU-DHL-6. In words: Cytotoxicity against human SU-DHL-6 cells measured after 3 days. The following applies: SU-DHL-6, 72 h. Type of experiment: functional, cell-based.
Experiment [8] concerns SET-2. In words: Cytotoxicity against human SET2 cells measured after 3 days. The following applies: SET-2, 72 h. Type of experiment: functional, cell-based.
The nature of experiment [9]: Cytotoxicity against human OVISE cells measured after 3 days. Conditions: 72 h. In kind it is functional, cell-based.
Experiment [10] concerns HCC2935. The experiment is described as follows: Cytotoxicity against human HCC2935 cells after 8 days. Type of experiment: functional, cell-based. The following applies: HCC2935, 192 h.
Experiment [11] in a line: Cytotoxicity against human COV362 cells measured after 3 days. In kind it is functional, cell-based. Conditions: COV362, 72 h.
Experiment [12] has as its system LN-18. The experiment is described as follows: Cytotoxicity against human LN-18 cells measured after 3 days. Type of experiment: functional, cell-based. Conditions: LN-18, 72 h.
Experiment [13] has as its system SNU-475. In words: Cytotoxicity against human SNU-475 cells measured after 3 days. In kind it is functional, cell-based. The following applies: SNU-475, 72 h.
For experiment [14], the system named is MFM-223. In words: Cytotoxicity against human MFM-223 cells measured after 3 days. In kind it is functional, cell-based. The following applies: MFM-223, 72 h.
Experiment [15] can be described thus: Cytotoxicity against human KPL-4 cells measured after 3 days. Type of experiment: functional, cell-based. The following applies: KPL4, 72 h.
Experiment [16] can be described thus: Cytotoxicity against human COV362.4 cells measured after 3 days. In kind it is functional, cell-based. Conditions: COV362.4, 72 h.
A short description of experiment [17]: Cytotoxicity against human HCC193 cells after 8 days. Type of experiment: functional, cell-based. The following applies: HCC193, 192 h.
Experiment [18] can be described thus: Cytotoxicity against human NCE-G 111 cells measured after 3 days. In kind it is functional, cell-based. Conditions: NCE-G 111, 72 h.
For experiment [19], the system named is SNU-387. The experiment is described as follows: Cytotoxicity against human SNU-387 cells measured after 3 days. In kind it is functional, cell-based. Conditions: SNU-387, 72 h.
The subject of experiment [20] is EKVX. The experiment is described as follows: Cytotoxicity against human EKVX cells after 8 days. In kind it is functional, cell-based. Conditions: 192 h.
Experiment [21] can be described thus: Cytotoxicity against human ONCO-DG-1 cells measured after 3 days. In kind it is functional, cell-based. The following applies: ONCO-DG-1, 72 h.
The test system of experiment [22] is PC-9. In words: Cytotoxicity against human PC-9 cells assessed as growth inhibition at 2 uM supplemented with fresh medium containing compound every 3 days for 9 days by Beckman Coulter counting method. In kind it is functional, cell-based. The following applies: time 9.0 day.
Experiment [23] is described as follows: Cytotoxicity against human NCE-G 118 cells measured after 3 days. Conditions: NCE-G 118, 72 h. Type of experiment: functional, cell-based.
The test system of experiment [24] is PC-9. In words: Cytotoxicity against human PC-9 cells assessed as reduction in drug tolerant population at 2 uM supplemented with fresh medium containing compound every 3 days for 9 days in presence of erlotinib by Beckman Coulter counting method relative to control. Conditions: time 9 day. Also noted: scale not given: the % may be the effect or the level left. In kind it is functional.

In experiment [25] the test system is LN-229. In words: Cytotoxicity against human LN-229 cells measured after 3 days. Type of experiment: functional, cell-based. The following applies: LN-229, 72 h.
Experiment [26] deals with IMR-32. In words: Cytotoxicity against human IMR-32 cells measured after 3 days. In kind it is functional, cell-based. The following applies: IMR-32, 72 h.
Experiment [27] can be described thus: Cytotoxicity against human PL-21 cells measured after 3 days. Type of experiment: functional, cell-based. Conditions: PL-21, 72 h.
The subject of experiment [28] is EFM-19. In words: Cytotoxicity against human EFM-19 cells measured after 3 days. In kind it is functional, cell-based. Conditions: EFM-19, 72 h.
Experiment [29] has as its system MDA-MB-453. The experiment is described as follows: Cytotoxicity against human MDA-MB-453 cells measured after 3 days. Type of experiment: functional, cell-based. Conditions: MDA-MB-453, 72 h.
A short description of experiment [30]: Cytotoxicity against human NCI-H2073 cells measured after 8 days. In kind it is functional, cell-based. Conditions: NCI-H2073, 192 h.
Experiment [31] has as its system PA-1. In words: Cytotoxicity against human PA-1 cells measured after 3 days. Type of experiment: functional, cell-based. Conditions: PA-1, 72 h.
Experiment [32] is described as follows: Cytotoxicity against human NCE-G 59 cells measured after 3 days. In kind it is functional, cell-based. Conditions: NCE-G 59, 72 h.
Experiment [33] is described as follows: Cytotoxicity against human NCE-G 22 cells measured after 3 days. Type of experiment: functional, cell-based. The following applies: NCE-G 22, 72 h.
Experiment [34] concerns OCI-AML2. In words: Cytotoxicity against human OCI-AML2 cells measured after 3 days. In kind it is functional, cell-based. Conditions: OCI-AML2, 72 h.
Experiment [35] in a line: Cytotoxicity against human EB1 cells measured after 3 days. In kind it is functional, cell-based. The following applies: EB1, 72 h.
The subject of experiment [36] is IGROV-1. In words: Cytotoxicity against human IGROV-1 cells measured after 3 days. Type of experiment: functional, cell-based. Conditions: IGROV-1, 72 h.
A short description of experiment [37]: Cytotoxicity against human OVTOKO cells measured after 3 days. The following applies: 72 h. In kind it is functional, cell-based.
Experiment [38] in a line: Cytotoxicity against human KHM-1B cells measured after 3 days. In kind it is functional, cell-based. Conditions: 72 h.
The test system of experiment [39] is COR-L47. In words: Cytotoxicity against human COR-L47 cells measured after 3 days. Type of experiment: functional, cell-based. The following applies: COR-L47, 72 h.
A short description of experiment [40]: Cytotoxicity against human OVCA429 cells measured after 3 days. Type of experiment: functional, cell-based. Conditions: OVCA429, 72 h.
The subject of experiment [41] is 769-P. The experiment is described as follows: Cytotoxicity against human 769-P cells measured after 3 days. Conditions: 72 h. In kind it is functional, cell-based.
The subject of experiment [42] is OAW-28. The experiment is described as follows: Cytotoxicity against human OAW28 cells measured after 3 days. Type of experiment: functional, cell-based. Conditions: OAW-28, 72 h.
Experiment [43] relates to NCI-H460. The experiment is described as follows: Cytotoxicity against human NCI-H460 cells measured after 3 days. Type of experiment: functional, cell-based. The following applies: NCI-H460, 72 h.
The test system of experiment [44] is NCI-H1793. In words: Cytotoxicity against human NCI-H1793 cells measured after 8 days. The following applies: NCI-H1793, 192 h. Type of experiment: functional, cell-based.
Experiment [45] in a line: Cytotoxicity against human Sc-1 cells measured after 3 days. The following applies: SC-1, 72 h. In kind it is functional, cell-based.

The structures appear in SMILES notation. pIC50: −log10 of the molar value. Active and inactive are the calls of the source. No cut-off for these calls is given here.

The pIC50 is −log10 of the IC50, conventionally taken in molar units.

As for `C/C=C/Cn1cc(-c2ccc(C(C)(C)O)cc2OC)c2cc[nH]c2c1=O`, the inhibition entry in experiment [1] is “Active”. Also, the outcome in experiment [2] and in experiment [5] was inactive. In addition, the pIC50 in experiment [3] is 5.44; in [4] it was 4.70.

Take `C/C=C/Cn1cc(-c2cc(OC)c(C(=O)N3CCOCC3)cc2OC)c2cc(C)[nH]c2c1=O`: the pIC50 in [6] was 5.30; in experiment [7], 5.30; in [8] it was 5.30; in experiment [9] it was 5.30; in experiment [10] it was 5.70; in [11], 5.30. For the same compound, the pIC50 in experiment [12] was 5.30; in [13], 5.30; in experiment [14], 5.30; in experiment [15], 5.30; in experiment [16], 5.30; in [17], 5.70. The pIC50 in [18] is 5.30; in [19] it was 5.30; in experiment [20], 5.70; in experiment [21], 5.30; in experiment [23], 5.30; in experiment [25] it was 5.30. In addition, the pIC50 in experiment [26] is 5.30; in experiment [27], 5.30; in [28], 5.30; in [29], 5.30; in [30], 5.70; in experiment [31], 5.30. The pIC50 in experiment [32], in [33], in [34], in experiment [35], in experiment [36] and in experiment [37] was 5.30 throughout. The pIC50 in experiment [38], in [39], in experiment [40], in [41], in [42] and in experiment [43] was 5.30 throughout. In addition, the pIC50 in [44] was 5.70; in experiment [45], 5.30. For the same compound, the outcome in experiment [22] was inactive. For the same compound, the Activity in experiment [24] was >60%.
